The subject of one series is Collagen IV. In words: Suppression of methylglyoxal-induced cross linking of collagen IV, by fluorescent intensity. Format: biochemical.
Series [1] can be described thus: Redox potential of cross linking suppressors. It counts as physicochemical.
Series [2] concerns AGE formation in peritoneum tissue. Particulars: rat.
Setting [3] is: collagen IV + methylglyoxal in phosphate buffer solution, 37° C., 7 days, relative to Control 3 = 100.
The mark [4] stands for this setting: Table 3, Control 3 (no suppressor) +282.

Molecules are shown by their SMILES. Like-named read-outs stand apart in the source and are kept apart here.

From patent publication US20040096845A1, “Peritoneal dialysates” (priority 2000, published 2004) come the findings set out here.

For the molecule `S` [Sodium hydrosulfide], the “Increase in FI %” value with Collagen IV was 10%. Moreover, the “Redox potential (mV)” value in series [1] is given as −620 mV.
As to `O=S([O-])S(=O)(=O)[O-].[Na+].[Na+]` [Sodium metabisulfite], the “Increase in FI %” value in the series with Collagen IV (setting [3]) turned out to be 0%. Besides, the “Redox potential (mV)” value in series [1] (setting [4]) is given as “+17 mV”.
Consider `O=C(C[n+]1ccsc1)c1ccccc1.[Br-]` [N-Phenacyl thiazolium bromide], for which the “AGE formation in peritoneum (in words)” value in series [2] (solution (C), methylglyoxal + additive, 5 days) is reported as “did not form AGE”. In series [2] (solution (D), additive alone for second 5 days), the “AGE formed on peritoneum tissue through first 5 days infusion, after second 5 days infusion (in words)” value is on record as “disappeared”.
Consider `O=S([O-])O.[Na+]` [Sodium bisulfite], for which the “Increase in FI %” value in the series on Collagen IV is 0%. For the same molecule, in series [1], the “Redox potential (mV)” value is given as −127 mV.
`CNC(=S)NC` [Dimethylthiourea]: the “Increase in FI %” value in the series on Collagen IV is listed as 2%. The “Redox potential (mV)” value in series [1] is recorded as −40 mV.
For `O=S([O-])([O-])=S.[Na+].[Na+]` [Sodium thiosulfate], the “Increase in FI %” value in the series on Collagen IV was 67%. For the same molecule, the “Redox potential (mV)” value in series [1] is reported as “+40 mV”.
For the molecule `O=S([O-])S(=O)[O-].[Na+].[Na+]` [Sodium hydrosulfite (Na2S2O4), Sodium hydrosulfite], in the series on Collagen IV (setting [3]), the “Increase in FI %” value turned out to be 0%. Moreover, the “Redox potential (mV)” value in series [1] (setting [4]) was −360 mV.
